Experimental data taken from PMC9796789 (The Febs Journal, 2022).

Experiments:
SyCrtE = target: T1, SyCrtE (Synechocystis sp. PCC 6803, UniProt P72683); assay: LC-MS of prenyl pyrophosphate products; type: biochemical; details: 50 µM DMAPP, 100 µM IPP, 10 mM MgCl2, 25 mM MOPSO pH 7.2, 30 °C, 2 h
T1 sequence (P72683 1-302): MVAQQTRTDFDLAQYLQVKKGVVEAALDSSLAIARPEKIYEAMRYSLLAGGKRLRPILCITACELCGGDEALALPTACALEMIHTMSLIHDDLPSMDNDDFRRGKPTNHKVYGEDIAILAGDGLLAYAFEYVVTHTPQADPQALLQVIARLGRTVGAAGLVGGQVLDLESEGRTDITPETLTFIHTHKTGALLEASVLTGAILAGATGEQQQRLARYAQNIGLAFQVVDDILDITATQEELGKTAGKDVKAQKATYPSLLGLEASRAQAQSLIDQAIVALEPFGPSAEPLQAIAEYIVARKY

SeCrtE = target: T2, SeCrtE (Synechococcus elongatus, UniProt Q31Q61); assay: LC-MS of prenyl pyrophosphate products; type: biochemical; details: 50 µM DMAPP, 100 µM IPP, 10 mM MgCl2, 25 mM MOPSO pH 7.2, 30 °C, 2 h
T2 sequence (Q31Q61 1-301): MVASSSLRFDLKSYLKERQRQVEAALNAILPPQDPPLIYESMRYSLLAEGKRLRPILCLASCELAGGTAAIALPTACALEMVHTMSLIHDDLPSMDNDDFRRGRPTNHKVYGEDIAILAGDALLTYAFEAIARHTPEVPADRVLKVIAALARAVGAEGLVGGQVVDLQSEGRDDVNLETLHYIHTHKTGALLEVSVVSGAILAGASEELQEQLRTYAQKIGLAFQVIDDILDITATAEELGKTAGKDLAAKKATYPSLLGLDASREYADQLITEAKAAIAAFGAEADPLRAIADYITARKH

[1] = target: CrtE from Synechococcus elongatus sp. PCC 7942 with a C-terminal His-tag (SeCrtE-His) (Synechococcus elongatus sp. PCC 7942); assay: crystal structure
crystal structure = target: the molecule itself; assay: crystal structure

CC(C)=CCC/C(C)=C/CC/C(C)=C/CC/C(C)=C/COP(=O)(O)OP(=O)(O)O [GGPP]
LC-MS of prenyl pyrophosphate products (SyCrtE): Under identical experimental conditions, SyCrtE produced GGPP, GPP and FPP | LC-MS of prenyl pyrophosphate products (SeCrtE): For SeCrtE, only GGPP formation was detected

CrtE from Synechococcus elongatus sp. PCC 7942 with a C-terminal His-tag (SeCrtE-His) (enzyme)
stoichiometry N [1]: 2

B1: CrtE from Synechocystis sp. PCC 6803 with a C-terminal His-tag (SyCrtE-His) (enzyme)
chain: MVAQQTRTDFDLAQYLQVKKGVVEAALDSSLAIARPEKIYEAMRYSLLAGGKRLRPILCITACELCGGDEALALPTACALEMIHTMSLIHDDLPSMDNDDFRRGKPTNHKVYGEDIAILAGDGLLAYAFEYVVTHTPQADPQALLQVIARLGRTVGAAGLVGGQVLDLESEGRTDITPETLTFIHTHKTGALLEASVLTGAILAGATGEQQQRLARYAQNIGLAFQVVDDILDITATQEELGKTAGKDVKAQKATYPSLLGLEASRAQAQSLIDQAIVALEPFGPSAEPLQAIAEYIVARKY
stoichiometry N (crystal structure): 2
